Data reported in article PMC8445441, “Elucidating the mechanism by which synthetic helper peptides sensitize Pseudomonas aeruginosa to multiple antibiotics” (PLoS Pathogens, 2021).
Read-outs that look alike come from different tables or passages of the source.

Columns and labels:
[1] = test system: P. aeruginosa AUMC-Pa-3; experiment: microbe, parasite or virus in culture; settings: for MIC: Pseudomonas aeruginosa, AUMCPA3, 18 h, read-out: MICa: MIC of the antibiotic; for FICI / MICac: MIC of the antibiotic in the combination: strain AUMC-Pa-3; for FICI: antibiotic + D-11 (MICb/MICbc 128/4); for MICac: MIC of the antibiotic in the combination: with D-11 at MICbc 4, unit not given
In short: (§1)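 Two-fold serial dilutions in MHB received an equal volume of bacteria (suspension about 1 × 10^6 CFU/mL). Plates were held 18 h at 37 °C, then read visually for growth. Triplicate, CLSI-based.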

[2] = test system: P. aeruginosa AUMC-Pa-4; experiment: microbe, parasite or virus in culture; settings: for MIC: Pseudomonas aeruginosa, AUMCPA4, 18 h, read-out: MICa: MIC of the antibiotic; for FICI / MICac: MIC of the antibiotic in the combination: strain AUMC-Pa-4; for FICI: antibiotic + D-11 (MICb/MICbc 128/4); for MICac: MIC of the antibiotic in the combination: with D-11 at MICbc 4, unit not given
In short: as §1

[3] = test system: P. aeruginosa AUMC-Pa-5; experiment: microbe, parasite or virus in culture; settings: for FICI: antibiotic + D-11 (MICb/MICbc 64/4); for MICac: MIC of the antibiotic in the combination: with D-11 at MICbc 4
In short: as §1

[4] = test system: P. aeruginosa AUMC-Pa-6; experiment: microbe, parasite or virus in culture; settings: for FICI: antibiotic + D-11 (MICb/MICbc 64/4); for MICac: MIC of the antibiotic in the combination: with D-11 at MICbc 4
In short: as §1

[5] = test system: P. aeruginosa PAO1; experiment: microbe, parasite or virus in culture; settings: PAO1; for MIC: Pseudomonas aeruginosa, PAO1, 18 h, read-out: MICa: the MIC of antibiotics, S3 Table
In short: as §1

[6] = test system: P. aeruginosa ATCC27853; experiment: microbe, parasite or virus in culture; design: MICa: MIC of the antibiotic / MICac: MIC of the antibiotic in the combination: unit not given beside the values; settings: for FICI: antibiotic + D-11 (MICb/MICbc 32/4); for MICac: MIC of the antibiotic in the combination: with D-11 at MICbc 4
In short: as §1

[7] = test system: P. aeruginosa NR-31040; experiment: microbe, parasite or virus in culture; design: MICa: MIC of the antibiotic / MICac: MIC of the antibiotic in the combination: unit not given beside the values; settings: for MIC: Pseudomonas aeruginosa, NR31040, 18 h, read-out: MICa: MIC of the antibiotic; for FICI / MICac: MIC of the antibiotic in the combination: strain NR-31040; for FICI: antibiotic + D-11 (MICb/MICbc 128/4); for MICac: MIC of the antibiotic in the combination: with D-11 at MICbc 4, unit not given
In short: as §1

[8] = test system: P. aeruginosa NR-31041; experiment: microbe, parasite or virus in culture; design: MICa: MIC of the antibiotic / MICac: MIC of the antibiotic in the combination: unit not given beside the values; settings: for MIC: Pseudomonas aeruginosa, NR31041, 18 h, read-out: MICa: MIC of the antibiotic; for FICI / MICac: MIC of the antibiotic in the combination: strain NR-31041; for FICI: antibiotic + D-11 (MICb/MICbc 64/4); for MICac: MIC of the antibiotic in the combination: with D-11 at MICbc 4, unit not given
In short: as §1

[9] = test system: P. aeruginosa PA14; experiment: microbe, parasite or virus in culture; design: MICa: MIC of the antibiotic / MICac: MIC of the antibiotic in the combination: unit not given beside the values; settings: strain PA14; for FICI: antibiotic + D-11 (MICb/MICbc 128/4); for MICa: MIC of the antibiotic: antibiotic alone; for MICa: MIC of the antibiotic / MICac: MIC of the antibiotic in the combination: unit not given; for MICac: MIC of the antibiotic in the combination: with D-11 at MICbc 4
In short: as §1

[10] = test system: P. aeruginosa PAK; experiment: microbe, parasite or virus in culture; design: MICa: MIC of the antibiotic / MICac: MIC of the antibiotic in the combination: unit not given beside the values; settings: for MIC: Pseudomonas aeruginosa, 18 h, read-out: MICa: MIC of the antibiotic; for FICI / MICac: MIC of the antibiotic in the combination: strain PAK; for FICI: antibiotic + D-11 (MICb/MICbc 64/4); for MICac: MIC of the antibiotic in the combination: with D-11 at MICbc 4, unit not given
In short: as §1

[11] = test system: P. aeruginosa HM-214; settings: strain HM-214; antibiotic + D-11 (MICb/MICbc 128/4)
In short: as §1

[12] = test system: P. aeruginosa AUMC-Pa-1; settings: strain AUMC-Pa-1; antibiotic + D-11 (MICb/MICbc 128/4)
In short: as §1

[13] = test system: P. aeruginosa AUMC-Pa-2; settings: strain AUMC-Pa-2; antibiotic + D-11 (MICb/MICbc 64/4)
In short: as §1

[14] = test system: clinical P. aeruginosa isolates; experiment: microbe, parasite or virus in culture; settings: Pseudomonas aeruginosa, 18 h, antibiotic alone
In short: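 Broth microdilution per CLSI in MHB, two-fold drug dilutions mixed with an equal volume of bacteria at about 1 × 10^6 CFU/mL. After 18 h at 37 °C, MIC taken as the lowest concentration with no visible growth; run in triplicate.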

[15] = strain AUMC-Pa-5, unit not given
[16] = strain AUMC-Pa-6, unit not given
[17] = S3 Table, antibiotic + 2 μM D-11
[18] = S3 Table, antibiotic + 4 μM D-11
[19] = strain ATCC27853, unit not given
[20] = read-out: Antibiotic sensibility (MIC) of clinical P. aeruginosa isolate AUMC-Pa-1, strain AUMC-Pa-1
[21] = read-out: Antibiotic sensibility (MIC) of clinical P. aeruginosa isolate AUMC-Pa-2, strain AUMC-Pa-2
[22] = read-out: Antibiotic sensibility (MIC) of clinical P. aeruginosa isolate AUMC-Pa-3, strain AUMC-Pa-3
[23] = read-out: Antibiotic sensibility (MIC) of clinical P. aeruginosa isolate AUMC-Pa-4, strain AUMC-Pa-4
[24] = read-out: Antibiotic sensibility (MIC) of clinical P. aeruginosa isolate AUMC-Pa-5, strain AUMC-Pa-5
[25] = read-out: Antibiotic sensibility (MIC) of clinical P. aeruginosa isolate AUMC-Pa-6, strain AUMC-Pa-6
[26] = read-out: Antibiotic sensibility (MIC) of clinical P. aeruginosa isolate HM-214, strain HM-214
[27] = read-out: Antibiotic sensibility (MIC) of clinical P. aeruginosa isolate NR-31040, strain NR-31040
[28] = read-out: Antibiotic sensibility (MIC) of clinical P. aeruginosa isolate NR-31041, strain NR-31041

With `C[C@H]1c2cccc(O)c2C(=O)C2=C(O)[C@]3(O)C(=O)C(C(N)=O)=C(O)[C@@H](N(C)C)[C@@H]3[C@@H](O)[C@@H]21` [Doxycycline] the MIC [1] was 16 µM, the FICI [1] was 0.063 and the “MICac: MIC of the antibiotic in the combination” value (shortened to “MICac: MIC of the antibiotic”) [1] was 0.5. The MIC [2] was 16 µM, the FICI [2] was 0.063 and the “MICac: MIC of the antibiotic” value [2] was 0.5. For the same compound, the FICI ([3]; strain AUMC-Pa-5) was 0.313, the “MICa: MIC of the antibiotic” value ([3]; strain AUMC-Pa-5, antibiotic alone, unit not given) was 8 and the “MICac: MIC of the antibiotic” value [3, 15] was 2. For the same compound, the FICI ([4]; strain AUMC-Pa-6) was 0.125, the “MICa: MIC of the antibiotic” value ([4]; strain AUMC-Pa-6, antibiotic alone, unit not given) was 16 and the “MICac: MIC of the antibiotic” value [4, 16] was 1. The MIC ([5]; antibiotic alone) was 16 µM, the FICI [5, 17] was 0.094 and the FICI [5, 18] was 0.141. For the same compound, the “MICac: the MIC for the antibiotic in the combination” value ([5]; S3 Table, with 2 μM D-11) was 0.5 µM, the “MICac: the MIC for the antibiotic in the combination” value ([5]; S3 Table, with 4 μM D-11) was 0.25 µM and the “MICa: the MIC of antibiotics” value ([5]; S3 Table, antibiotic alone) was 16 µM. The MIC ([6]; Pseudomonas aeruginosa, ATCC27853, 18 h, read-out: MICa: MIC of the antibiotic) was 16 µM, the FICI ([6]; strain ATCC27853) was 0.156 and the “MICac: MIC of the antibiotic” value [6, 19] was 0.5. The MIC [7] was 16 µM, the FICI [7] was 0.039 and the “MICac: MIC of the antibiotic” value [7] was 0.125. For the same compound, the MIC [8] was 16 µM, the FICI [8] was 0.094 and the “MICac: MIC of the antibiotic” value [8] was 0.5. For the same compound, the FICI [9] was 0.094, the “MICa: MIC of the antibiotic” value [9] was 16 and the “MICac: MIC of the antibiotic” value [9] was 1. The MIC [10] was 16 µM, the FICI [10] was 0.094 and the “MICac: MIC of the antibiotic” value [10] was 0.5. The FICI [11] was 0.063, the FICI [12] was 0.063 and the FICI [13] was 0.188. The MIC [14, 20] was 32 µM, the MIC [14, 21] was 8 µM and the MIC [14, 22] was 16 µM. The MIC [14, 23] was 16 µM, the MIC [14, 24] was 8 µM and the MIC [14, 25] was 16 µM. For the same compound, the MIC [14, 26] was 16 µM, the MIC [14, 27] was 16 µM and the MIC [14, 28] was 16 µM.

In the case of `C[C@@H]1O[C@@H]1P(=O)(O)O` [Fosfomycin], the MIC [1] is reported as greater than 128 µM, the FICI [1] is reported as 0.156 and the “MICac: MIC of the antibiotic” value [1] is reported as 32. For the same compound, the MIC [2] was greater than 128 µM, the FICI [2] was 1.031 and the “MICac: MIC of the antibiotic” value [2] was >128/>128. For the same compound, the MIC ([3]; Pseudomonas aeruginosa, AUMCPA5, 18 h, read-out: MICa: MIC of the antibiotic) was greater than 128 µM, the FICI ([3]; strain AUMC-Pa-5) was 0.563 and the “MICac: MIC of the antibiotic” value [3, 15] was >128/128. The MIC ([4]; Pseudomonas aeruginosa, AUMCPA6, 18 h, read-out: MICa: MIC of the antibiotic) was greater than 128 µM, the FICI ([4]; strain AUMC-Pa-6) was 1.063 and the “MICac: MIC of the antibiotic” value [4, 16] was >128/>128. For the same compound, the MIC ([5]; antibiotic alone) was greater than 128 µM, the FICI [5, 17] was 0.188 and the FICI [5, 18] was 0.188. For the same compound, the FICI ([6]; strain ATCC27853) was 0.188, the “MICa: MIC of the antibiotic” value ([6]; strain ATCC27853, antibiotic alone, unit not given) was 128 and the “MICac: MIC of the antibiotic” value [6, 19] was 8. For the same compound, the MIC [7] was greater than 128 µM, the FICI [7] was 0.531 and the “MICac: MIC of the antibiotic” value [7] was >128/128. The MIC [8] was greater than 128 µM, the FICI [8] was 0.563 and the “MICac: MIC of the antibiotic” value [8] was >128/128. The FICI [9] was 0.281, the “MICa: MIC of the antibiotic” value [9] was 128 and the “MICac: MIC of the antibiotic” value [9] was 32. The MIC [10] was greater than 128 µM, the FICI [10] was 0.313 and the “MICac: MIC of the antibiotic” value [10] was 64. It also gave an FICI [11] of 0.281, an FICI [12] of 0.281 and an FICI [13] of 0.188. The MIC [14, 20] was greater than 128 µM, the MIC [14, 21] was 128 µM and the MIC [14, 22] was greater than 128 µM. For the same compound, the MIC [14, 23] was greater than 128 µM, the MIC [14, 24] was greater than 128 µM and the MIC [14, 25] was greater than 128 µM. It also gave an MIC [14, 26] greater than 128 µM, an MIC [14, 27] greater than 128 µM and an MIC [14, 28] greater than 128 µM.
